Measured values: patent US10669238B2, “Irreversible bruton's tyrosine kinase inhibitor” (HEFEI INSTITUTES OF PHYSICAL SCIENCE, CHINESE ACADEMY OF …, priority 2016, dated 2020)

Target: BTK protein kinase (Homo sapiens, UniProt Q06187)
Test: In vitro enzymatic activity against BTK (ADP-Glo)
Type: biochemical
Conditions: compound with BTK 4 hours at room temperature; ATP 10 μM, 37° C. 1 hour; values given in μM
Description: In vitro enzymatic activity of the compounds against BTK was determined in a experimental assay of in vitro enzymatic activity using […] kit (purchased from Progema, USA).
9 μL of BTK protein kinase (at a concentration of 1.5 ng/μL) was used to react with compounds (1 μL) shown in the following table that were diluted three times in gradient at room temperature for 4 hours (the final concentration of the compound being 10 μM, 3 μM, 1 μM, 0.3 μM, 0.1 μM, 0.03 μM, 0.01 μM, 0.003 μM);
2 μL of ATP and 3 μL of the substrate Poly(4:1 Glu, Tyr)Peptide (Promega, USA) (the final concentrations being 10 μM and 0.2 μg/μL, respectively) were added to allow reaction at 37° C. for 1 hour;
5 μL of BTK kinase solution after reaction was taken and added into 5 μL of ADP-Glo™ (Promega, USA) reagent to allow reaction at room temperature for 40 mins so as to terminate the kinase reaction and exhaust the remaining ATP;
10 μL kinase detecting reagent was added to convert ADP to ATP, and newly synthesized ATP was detected using coupled luciferase/[…] reaction, then the IC50 values were calculated by using a plotting method based on the Envision reading.

Chain of BTK protein kinase (Q06187 whole entry): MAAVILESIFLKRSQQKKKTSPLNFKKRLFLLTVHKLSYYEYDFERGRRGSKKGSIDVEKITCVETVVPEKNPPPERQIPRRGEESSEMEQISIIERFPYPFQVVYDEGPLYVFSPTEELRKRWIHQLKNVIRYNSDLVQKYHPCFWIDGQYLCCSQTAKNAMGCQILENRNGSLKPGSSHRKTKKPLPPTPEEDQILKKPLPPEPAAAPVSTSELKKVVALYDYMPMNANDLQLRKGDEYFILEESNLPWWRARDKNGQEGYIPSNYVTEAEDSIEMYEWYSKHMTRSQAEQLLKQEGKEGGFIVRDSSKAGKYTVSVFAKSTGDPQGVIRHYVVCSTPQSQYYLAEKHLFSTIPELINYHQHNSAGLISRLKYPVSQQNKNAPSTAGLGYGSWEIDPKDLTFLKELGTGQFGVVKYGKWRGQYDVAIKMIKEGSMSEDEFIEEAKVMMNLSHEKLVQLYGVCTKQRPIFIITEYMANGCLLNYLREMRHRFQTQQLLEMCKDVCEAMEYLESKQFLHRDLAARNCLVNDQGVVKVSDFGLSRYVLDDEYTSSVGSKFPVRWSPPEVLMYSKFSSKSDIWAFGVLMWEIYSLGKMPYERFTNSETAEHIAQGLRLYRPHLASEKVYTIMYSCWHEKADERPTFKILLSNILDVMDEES

IC50	SMILES
1.22 µM	Cc1c(NC(=O)c2ccc(C(C)(C)C)cc2)cc(NC(=O)CCl)cc1-c1cc(Nc2ccc(C(=O)N3CCOCC3)cc2)c(=O)n(C)c1 [Compound 7, 4-(tert-butyl)-N-(5-(2-chloroacetamide)-2-methyl-3-(1-methyl-5-((4-(morpholin-4-carbonyl)phenyl)amino)-6-oxo-1,6-dihydropyridin-3-yl)phenyl)benzoylamide]
2.61 µM	C=CC(=O)Nc1cc(NC(=O)c2ccc(C(C)(C)C)cc2)c(C)c(-c2cc(Nc3ccc(C(=O)N4CCOCC4)cc3)c(=O)n(C)c2)c1 [Compound 8, 4-(tert-butyl)-N-(5-(2-acrylamide)-2-methyl-3-(1-methyl-5-((4-(morpholin-4-carbonyl)phenyl)amino)-6-oxo-1,6-dihydropyridin-3-yl)phenyl)benzoylamide]
4.62 µM	C=CC(=O)Nc1cc(Nc2cc(-c3cccc(NC(=O)c4ccccc4)c3C)cn(C)c2=O)ccc1C(=O)N1CCOCC1 [Compound 12, N-(3-(5-((3-acrylamide-4-(morpholin-4-carbonyl)phenyl)amino)-1-methyl-6-oxo-1,6-dihydropyridin-3-yl)-2-methylphenyl)benzoylamide]
5.53 µM	Cc1c(NC(=O)c2ccc(C(C)(C)C)cc2)cccc1-c1cc(Nc2cccc(NC(=O)CCl)c2)c(=O)n(C)c1 [Compound 22, N-(3-(5-((3-chloroacetamidephenyl)amino)-1-methyl-6-oxo-1,6-dihydropyridin-3-yl)-2-methylphenyl)-4-(tert-butyl)benzamide]
1.77 µM	C=CC(=O)Nc1ccc(NC(=O)c2ccc(C(C)(C)C)cc2)c(C)c1-c1cc(Nc2ccc(C(=O)N3CCOCC3)cc2)c(=O)n(C)c1 [Compound 24]

Same assay, conditions: compound with BTK 4 hours at room temperature; ATP 10 μM, 37° C. 1 hour; values in nM

SMILES	IC50
C#CC(=O)Nc1cc(C(=O)N2CCOCC2)ccc1Nc1cc(-c2cccc(NC(=O)c3ccc(C(C)(C)C)cc3)c2C)cn(C)c1=O [Compound 4, N-(3-(5-((2-propynamide-4-(morpholin-4-carbonyl)phenyl)amino)-1-methyl-6-oxo-1,6-dihydropyridin-3-yl)-2-methylphenyl)-4-(tert-butyl)benzamide]	0.0326 µM
C=CC(=O)Nc1cc(Nc2cc(-c3cccc(NC(=O)c4ccc(C(C)(C)C)cc4)c3C)cn(C)c2=O)ccc1C [Compound 25, N-(3-(5-((3-acrylamide-4-methylphenyl)amino)-1-methyl-6-oxo-1,6-dihydropyridin-3-yl)-2-methylphenyl)-4-(tert-butyl)benzamide]	0.212 µM
Cc1ccc(Nc2cc(-c3cccc(NC(=O)c4ccc(C(C)(C)C)cc4)c3C)cn(C)c2=O)cc1NC(=O)CCl [Compound 26, N-(3-(5-((3-chloroacetamide-4-methylphenyl)amino)-1-methyl-6-oxo-1,6-dihydropyridin-3-yl)-2-methylphenyl)-4-(tert-butyl)benzamide]	0.223 µM
C=CC(=O)Nc1cc(Nc2cc(-c3cccc(NC(=O)c4ccc(C(C)(C)C)cc4)c3C)cn(C)c2=O)ccc1C(=O)N(C)C [Compound 28, 2-acrylamide-4-((5-(3-(4-(tert-butyl)benzamide)-2-methylphenyl)-1-methyl-2-oxo-1,2-dihydropyridin-3-yl)amino)-N,N-dimethylbenzoylamide]	0.025 µM
CCC(=O)Nc1cc(Nc2cc(-c3cccc(NC(=O)c4ccc(C(C)(C)C)cc4)c3C)cn(C)c2=O)ccc1C(=O)N(C)C [Compound 30, 2-propanamide-4-((5-(3-(4-(tert-butyl)benzamide)-2-methylphenyl)-1-methyl-2-oxo-1,2-dihydropyridin-3-yl)amino)-N,N-dimethylbenzoylamide]	0.339 µM

More lines, now with the values ahead:

IC50	SMILES
0.0379 µM	Cc1c(NC(=O)c2ccc(C(C)(C)C)cc2)cccc1-c1cc(Nc2ccc(C(=O)N3CCOCC3)c(NC(=O)CCl)c2)c(=O)n(C)c1 [Compound 2, N-(3-(5-((3-chloroacetamide-4-(morpholin-4-carbonyl)phenyl)amino)-1-methyl-6-oxo-1,6-dihydropyridin-3-yl)-2-methylphenyl)-4-(tert-butyl)benzamide]
0.144 µM	C=CC(=O)Nc1cc(Nc2cc(-c3cccc(NC(=O)c4ccc(C(C)(C)C)cc4)c3C)cn(C)c2=O)ccc1C(=O)N1CCN(C)CC1 [Compound 3, N-(3-(5-((3-acrylamide-4-(4-methylpiperazin-1-carbonyl)phenyl)amino)-1-methyl-6-oxo-1,6-dihydropyridin-3-yl)-2-methylphenyl)-4-(tert-butyl)benzamide]
0.0889 µM	C=CC(=O)Nc1cc(Nc2cc(-c3cccc(NC(=O)c4ccc(C)cc4)c3C)cn(C)c2=O)ccc1C(=O)N1CCOCC1 [Compound 9, N-(3-(5-((3-acrylamide-4-(morpholin-4-carbonyl)phenyl)amino)-1-methyl-6-oxo-1,6-dihydropyridin-3-)-2-methylphenyl)-4-(methyl)benzoylamide]
0.152 µM	Cc1ccc(C(=O)Nc2cccc(-c3cc(Nc4ccc(C(=O)N5CCOCC5)c(NC(=O)CCl)c4)c(=O)n(C)c3)c2C)cc1 [Compound 11, N-(3-(5-((3-chloroacetamide-4-(morpholin-4-carbonyl)phenyl)amino)-1-methyl-6-oxo-1,6-dihydropyridin-3-yl)-2-methylphenyl)-4-(methyl)benzoylamide]
0.262 µM	C=CC(=O)Nc1cc(Nc2cc(-c3cccc(NC(=O)c4ccc(N5CCOCC5)cc4)c3C)cn(C)c2=O)ccc1C(=O)N1CCOCC1 [Compound 15, N-(3-(5-((3-acrylamide-4-(morpholin-4-carbonyl)phenyl)amino)-1-methyl-6-oxo-1,6-dihydropyridin-3-yl)-2-methylphenyl)-4-morpholinbenzoylamide]
0.437 µM	Cc1c(NC(=O)c2ccc(N3CCOCC3)cc2)cccc1-c1cc(Nc2ccc(C(=O)N3CCOCC3)c(NC(=O)CCl)c2)c(=O)n(C)c1 [Compound 16, N-(3-(5-((3-chloroacetamide-4-(morpholin-4-carbonyl)phenyl)amino)-1-methyl-6-oxo-1,6-dihydropyridin-3-yl)-2-methylphenyl)-4-morpholinbenzoylamide]
0.187 µM	C=CC(=O)Nc1cc(Nc2cc(-c3cccc(NC(=O)c4ccc5c(c4)OCO5)c3C)cn(C)c2=O)ccc1C(=O)N1CCOCC1 [Compound 18, N-(3-(5-((3-acrylamide-4-(morpholin-4-carbonyl)phenyl)amino)-1-methyl-6-oxo-1,6-dihydropyridin-3-yl)-2-methylphenyl)-benzo[d][1,3]dioxolanyl-5-carboxamide]
0.197 µM	Cc1c(NC(=O)c2ccc3c(c2)OCO3)cccc1-c1cc(Nc2ccc(C(=O)N3CCOCC3)c(NC(=O)CCl)c2)c(=O)n(C)c1 [Compound 19, N-(3-(5-((3-chloroacetamide-4-(morpholin-4-carbonyl)phenyl)amino)-1-methyl-6-oxo-1,6-dihydropyridin-3-yl)-2-methylphenyl)-benzo[d][1,3]dioxolanyl-5-carboxamide]
0.019 µM	C=CC(=O)Nc1cc(Nc2cc(-c3cccc(NC(=O)c4ccc(C(C)(C)C)cc4)c3C)cn(C)c2=O)ccc1C(=O)N1CCCC1 [Compound 31, N-(3-(5-((3-acrylamide-4-(pyrrolidin-1-carbonyl)phenyl)amino)-1-methyl-6-oxo-1,6-dihydropyridin-3-yl)-2-methylphenyl)-4-(tert-butyl)benzamide]
